Results from a melting point compilation (Tetko et al.).

Conditions: a range is the spread between reports

Row | melting point [°C] | SMILES
1 | -104 | CCSCC
2 | -66.1 to -66 | CCCCCCC(=O)OCC
3 | 108 to 113 | NC(=O)c1ccccc1N
4 | 41 to 42 | BrCCCCOc1ccccc1
5 | -70 to -69.8 | CC1(C)CCCC1
6 | -103 to -102 | CCCC(C)(C)O
7 | 12 to 13.5 | CC(=O)CCCC(=O)O
8 | -118 | CCC1=CCCC1
9 | -62.3 to -62 | CCc1ccc(C)cc1
10 | 166 to 167 | CCn1ccc(NS(=O)(=O)c2ccc(N)cc2)nc1=O
11 | -16.2 to -16 | CCc1c(C)cccc1C
12 | 53 to 53.5 | CCOC(=O)NCCOc1ccc(Oc2ccccc2)cc1
13 | 7.7 to 8 | COCC(=O)O
14 | -98 to -93 | CCCC(=O)OCC
15 | -103 to -101 | CCCC#CCCC
16 | -126 | CCC(Br)CC
17 | -114 | C=C=C(C)C
18 | -16 to -15 | CCCCCCCCO
19 | 167 to 168 | Cc1c(C(=O)O)cnn1-c1ccccc1
20 | 118 to 120 | COC(=O)c1ccc(O)cc1O
21 | 182 to 183 | CC(=O)NS(=O)(=O)c1ccc(N)cc1
22 | -126 | CCCC(C)(C)CC
23 | 128 to 129 | O=C(O)Cc1ccc(O)c(O)c1

Row | melting point [°C] | SMILES
24 | 98 to 99 | CC(=O)c1cccc(C#N)c1
25 | -95 to -92 | CCCOC(C)=O
26 | 255 to 259 | CC12CCC3c4ccc(O)cc4CCC3C1CCC2=O (centres undefined)
27 | -21.1 to -20.7 | CCC(=O)O
28 | -21 to -20 | CCOC(=O)CCC(=O)OCC
29 | 9 to 10 | Cc1ccc(C)c(Br)c1
30 | 1.5 to 2 | CCOC(=O)C#CC(=O)OCC
31 | 225 to 226 | O=C(O)c1ccc(O)cc1O
32 | 12 to 13.5 | CC(=O)c1cccnc1
33 | -128 | CC(C)CC(C)C(C)C (centres undefined)
34 | 204 | COc1cc(NS(=O)(=O)c2ccc(N)cc2)nc(OC)n1
35 | 117 to 118 | O=C(O)C(O)c1ccc(Br)cc1 (centres undefined)
36 | -55.5 to -55 | CCCC(=O)CC
37 | 46 to 50 | COC(=O)c1cc(Cl)ccc1O
38 | 53 to 55 | COc1cccc([N+](=O)[O-])c1C
39 | -109 to -105 | CCCCCC(C)C
40 | 87 to 89 | CCCCCCCCCCCCCCCCCC(=O)CCCCCCCCCCCCCCCCC
41 | 65 to 65.5 | CCCCOc1ccc(O)cc1
42 | 187 to 188 | O=C(O)c1cccc(I)c1
43 | 155 | NC(=O)c1cccc(Br)c1
44 | 13.5 to 14 | CCOc1ccc(C=O)cc1
45 | 181 to 182 | O=Cc1cc(Br)c(O)c(Br)c1
46 | 36 to 37 | CCCCCCCCCCCCCCCCCCCC

Row | melting point [°C] | SMILES
47 | 188 to 189 | O=C(O)c1ccc(F)cc1F
48 | 97.5 to 98 | O=C(O)CCOc1ccccc1
49 | -115 to -113 | CC/C=C/CC
50 | 77 to 80 | O=C(O)CO
51 | 79 to 81 | COC(=O)c1ccc(Br)cc1
52 | 70 to 71.5 | Cc1ccc(OC(=O)c2ccccc2)cc1
53 | -31.1 to -31 | CC(=O)OCCc1ccccc1
54 | 94 to 96.5 | O=[N+]([O-])c1ccc(CO)cc1
55 | -75 to -74 | CC(C)=C(C)C
56 | 25 to 27 | CCCC#CC(=O)O
57 | 222 to 226 | CC12CCC(=O)C=C1CCC1C2C(=O)CC2(C)C1CCC2(O)C(=O)CO (centres undefined)
58 | 148 to 150 | O=C(O)COc1ccccc1Cl
59 | -91.2 to -91 | CCCCC(=O)OCC
60 | -80.3 to -80 | CCCCCCC(C)C
61 | 143 to 144 | O=C(O)CCCCCCC(=O)O
62 | 28 to 28.2 | CCCCCCCCCCCCCCCCCC
63 | 81.5 to 82 | O=C(O)CCI
64 | -84 to -83.6 | CCOC(C)=O
65 | 198 to 199 | NC(=O)c1c(Cl)cccc1Cl
66 | 169 to 171 | O=C(O)[C@H](O)[C@@H](O)C(=O)O
67 | 67 to 70.2 | CCCCCCCCCCCC(=O)CCCCCCCCCCC
68 | 56.4 to 57 | CCCCCCCCCCCCCCCCCCCCCCCCCC

The next lines start with the compound.

Row | SMILES | melting point [°C]
69 | Cc1c(C)c(C)c(C)c(C)c1C | 164 to 168
70 | COc1cc(Cl)ccc1O | 16.5 to 17
71 | Nc1cc(Cl)c(Cl)cc1Cl | 94 to 96.5
72 | Cc1ccc(C)c(N)c1 | 12 to 15.5
73 | COC(C)OC | -113
74 | O=C1OCc2ccccc21 | 74 to 75
75 | NC(=O)OCc1ccccc1 | 87 to 88
76 | c1ccc(-c2ccc(-c3ccccc3)o2)cc1 | 88 to 91
77 | O=[N+]([O-])c1cccc(S(=O)(=O)Cl)c1 | 60.9 to 61
78 | Nc1cc(Cl)c(O)c(Cl)c1 | 167 to 168
79 | CCCCCCCC#N | -46 to -45
80 | ClCCBr | -18 to -16.7
81 | Cc1ccc(S(=O)(=O)c2ccc(C)cc2)cc1 | 157 to 159
82 | NCc1cccnc1 | -21.1 to -21
83 | ClCc1ccccc1 | -45 to -43
84 | CCC1(c2ccccc2)CCC(=O)NC1=O (centres undefined) | 84 to 87.5
85 | Nc1ccc(Br)cc1Br | 78 to 80
86 | N#Cc1ccccc1-c1ccccc1 | 38 to 41
87 | C=Cc1ccc([N+](=O)[O-])cc1 | 27 to 29
88 | COc1cc(Cl)cc(OC)c1 | 34 to 35
89 | C=CC(=O)OC | -76.5 to -75
90 | Nc1ccc(F)c(Cl)c1 | 45.5 to 46

Row | SMILES | melting point [°C]
91 | Cc1ccc2ccccc2c1 | 33 to 34.4
92 | C[Si]1(C)O[Si](C)(C)O[Si](C)(C)O1 | 60 to 65
93 | CN[C@@H](C)[C@H](O)c1ccccc1 | 34 to 36
94 | N#Cc1ccc2c(c1)OCO2 | 93 to 94
95 | Cc1n[nH]c(=S)[nH]c1=O | 218 to 220
96 | C=C1C2CCC(C2)C1(C)C (centres undefined) | 50 to 52
97 | Cc1ccc2ccccc2n1 | -2 to -1.5
98 | BrC(c1ccccc1)(c1ccccc1)c1ccccc1 | 153 to 154
99 | Oc1ccc(Br)cc1Cl | 49 to 50.5
100 | O=C1CCCN1 | 23 to 24
101 | O=C(O)c1cc(Cl)c(O)c(Cl)c1 | 265 to 268
102 | COc1cc(Cc2cnc(N)nc2N)cc(OC)c1OC | 200 to 201
103 | C=Cn1c2ccccc2c2ccccc21 | 63 to 65
104 | O=C(Cl)c1ccc(Cl)cc1 | 12 to 16
105 | Clc1nc(Cl)c(Cl)c(Cl)c1Cl | 125 to 126
106 | C1=CCCCCCC1 | -16 to -12
107 | O=[N+]([O-])c1ccc2c(c1)Cc1ccccc1-2 | 156 to 157
108 | Nc1cccc2cccc(N)c12 | 63 to 66.5
109 | Nc1c(Cl)cc(Cl)cc1Br | 80 to 83.5
110 | CC(C)c1cc(C(C)C)c(C(C)C)cc1C(C)C | 118 to 119
111 | N#Cc1c(F)cccc1F | 30 to 31
112 | Ic1ccc(-c2ccccc2)cc1 | 112 to 114

Row | SMILES | melting point [°C]
113 | Oc1ccc2c(c1)CCC2 | 53 to 58
114 | C=CCBr | -119
115 | COc1ccc(C=O)cc1 | -1 to 1
116 | Fc1ccccc1-c1ccccc1 | 73.5 to 74
117 | Fc1ccc(Br)cc1 | -17.4 to -16
118 | Cc1cc(N)ccc1Br | 79 to 81
119 | Cc1cc(Cl)ccc1OC(C)C(=O)O (centres undefined) | 94 to 95
120 | Oc1ccc(O)c(-c2ccccc2)c1 | 101 to 102
121 | C1COCCO1 | 11.8 to 12
122 | Cc1ccc2[nH]cnc2c1 | 112 to 116
123 | Nc1cccc(N)c1 | 63 to 65
124 | O=C(CBr)c1ccc(Br)cc1 | 109 to 111
125 | ClC1C(Cl)C(Cl)C(Cl)C(Cl)C1Cl (centres undefined) | 159 to 160
126 | COC(=O)c1ccccc1C(=O)OC | 2 to 5.5
127 | S=C=S | -112
128 | CN(C)c1ccccc1 | 2 to 3
129 | CC(C)C(Br)C(=O)O (centres undefined) | 39 to 44
130 | Brc1cccc2ccccc12 | -1.8 to -1
131 | CC1CCCC1(C)C (centres undefined) | -22 to -21.6
132 | Brc1cc2ccccc2c2ccccc12 | 64 to 64.5
133 | N#CCc1ccc(O)cc1 | 69 to 71
134 | O=Cc1ccccc1F | -45 to -44.5

Row | SMILES | melting point [°C]
135 | N#CSCSC#N | 105 to 106
136 | N#Cc1ccccc1[N+](=O)[O-] | 108 to 109
137 | Cc1ccc(C(=O)Cl)cc1 | -3 to -2
138 | c1ccc2c(c1)CCO2 | -21.5 to -21
139 | O=C(O)c1ccnc2ccccc12 | 254
140 | Nn1cnnc1 | 82.5 to 86
141 | Brc1cscc1Br | 4.5 to 5
142 | Cc1ccccc1Cl | -36 to -35
143 | Clc1ccc(Cl)c(Br)c1 | 34 to 35
144 | Brc1ccc(Oc2ccc(Br)cc2)cc1 | 58 to 60.5
145 | FC(F)(F)c1ccc(Cl)c(Cl)c1 | -12.5 to -12
146 | CC(C)c1cccc(C(C)C)c1 | -63.1 to -63
147 | Cc1ccc(Br)cc1 | 25 to 28.5
148 | c1ccc2c(c1)OCCOCCOc1ccccc1OCCOCCO2 | 162 to 163
149 | c1ccc(Oc2ccccc2)cc1 | 26.8 to 28
150 | C1CNCCN1 | 106 to 110
151 | C1CCOCC1 | -49 to -45
152 | C=CCCl | -135 to -134
153 | O=Cc1ccc(I)cc1 | 77 to 78
154 | ClCCCl | -36 to -35
155 | Cc1ccc(C)c(C)c1C | -6.2 to -6
156 | CCCS | -113

Row | SMILES | melting point [°C]
157 | O=[N+]([O-])c1c(Cl)c(Cl)c(Cl)c(Cl)c1Cl | 142 to 144
158 | O=C(O)c1cccc(Cl)c1 | 156 to 158
159 | O=C(O)C12CC3CC(CC(C3)C1)C2 | 174 to 175
160 | COc1c(F)c(F)c(F)c(F)c1F | -38 to -37
161 | Cc1ccc(Cl)c(N)c1 | 29.5 to 32
162 | C=CC=C | -113 to -109
163 | CN(C)C(=O)Nc1cccc(C(F)(F)F)c1 | 164
164 | CC1(C)CC(C)(c2ccccc2)c2ccccc21 (centres undefined) | 50 to 52.5
165 | Oc1cc(O)c2ccccc2c1 | 124 to 125
166 | Cn1c2ccccc2c2ccccc21 | 89.3 to 91
167 | O=[N+]([O-])c1ccc(F)cc1 | 21 to 23
168 | CC#CC | -32.3 to -32
169 | Clc1ccc(-c2ccc(Cl)cc2)cc1 | 149
170 | CCCCCCI | -75 to -74.2
171 | Nc1nc(Cl)cc(Cl)n1 | 220
172 | c1ccc2cc3c(ccc4ccccc43)cc2c1 | 158 to 160
173 | CC(=O)Nc1ccccc1C(=O)O | 184 to 186
174 | C1CCCCCCC1 | 12 to 15
